These are literature values, as cited in patent publication US6495173B1, “Compositions and methods for reducing or controlling blood cholesterol, lipoproteins, triglycerides and atherosclerosis” (priority 2000, dated 2002).

The conditions of data set [1]: supplement users versus non-users.
The conditions of data set [2]: 100 mg per day for 30 days.
The conditions of data set [3]: 75 mg to 600 mg/day, eight years.
For data set [4] the following is noted: in vivo.
For data set [5] the following is noted: human, in vivo.
The conditions of data set [6]: 500 mcg BID, after 2 and 4 months.
The conditions of data set [7]: rats.
The conditions of data set [8]: mean dose of 2,250 mg/day.
For data set [9] the following is noted: large doses (3 to 6 g/day).

In the case of vitamin E, the absolute risk reduction in data set [1] is listed as 3.4 women per 10,000 woman-years. In addition, the “reduction in relative risk for non-fatal myocardial infarction and death from cardiovascular disease” value in [1] (average 8 years follow-up, adjusted) is reported as 31%.
For chromium picolinate, the triglyceride level (supplementation for 2 months (vs. 161)) is 133 mg/dL. Also, under “supplementation for 2 months, P<0.05”, the “reduction in triglyceride levels” value is 17.4%.
Consider `COC1=C(OC)C(=O)C(C/C=C(\C)CC/C=C(\C)CC/C=C(\C)CC/C=C(\C)CC/C=C(\C)CC/C=C(\C)CC/C=C(\C)CC/C=C(\C)CC/C=C(\C)CCC=C(C)C)=C(C)C1=O` [Coenzyme Q10], for which, in [2], the “hydroperoxide levels in the LDL3 subfraction” value was “significant decrease”. Also, the “Coenzyme Q10 levels in all three LDL subfractions” value in data set [2] (P<0.01) was “increased”. Further, in data set [3], the “decreased dependency on drugs” value is on record as 43% and the “improvements in myocardial function” value was 58%.
For `CC[C@H](C)C(=O)O[C@H]1C[C@@H](C)C=C2C=C[C@H](C)[C@H](CC[C@@H]3C[C@@H](O)CC(=O)O3)[C@H]21` [Lovastatin, lovastatin], in data set [4], the “increased liver transaminase levels, share of subjects” value is 2%; the “myopathy with a creatine kinase greater than 10 times normal, share of subjects” value is on record as 0.5%; the “required discontinuation, share of those treated” value is recorded as 9%. In [5], the “decrease in levels of LDL” value was 32.4% and the “decrease in levels of VLDL” value is recorded as 53%.
For `[Cr]` [chromium], the “blood sugar and cholesterol versus placebo group” value in data set [6] is “lower”.
As for `CC(C)(C)c1cc(O)ccc1O` [TBHQ, tert-butylhydroquinone], the “blood cholesterol and triglycerides” value in data set [7] is “reduce”.
As for `O=C(O)c1cccnc1` [Nicotinic acid], the “increase in levels of HDL-cholesterol” value in data set [8] is given as 35%. In data set [9], the “increase in HDL” value is listed as at most 30 mg/dL.
